Laboratory results taken from ChEMBL document CHEMBL2074083, “Functional characterization of SLCO1B1 (OATP-C) variants, SLCO1B1*5, SLCO1B1*15 and SLCO1B1*15+C1007G, by using transient expression systems of HeLa and HEK293 cells” (Pharmacogenet Genomics, 2005).
Each block holds one molecule with its values, some of them ahead of it.

Experiments:
Assay type in all cases: functional, cell-based
OATP1B1 = target: T1, OATP1B1 (Homo sapiens, UniProt Q9Y6L6); test: (§1) TP_TRANSPORTER: uptake in OATP1B1-expressing HEK293 cells; settings: HEK293 cells that express OATP1B1
T1 sequence (Q9Y6L6 whole entry): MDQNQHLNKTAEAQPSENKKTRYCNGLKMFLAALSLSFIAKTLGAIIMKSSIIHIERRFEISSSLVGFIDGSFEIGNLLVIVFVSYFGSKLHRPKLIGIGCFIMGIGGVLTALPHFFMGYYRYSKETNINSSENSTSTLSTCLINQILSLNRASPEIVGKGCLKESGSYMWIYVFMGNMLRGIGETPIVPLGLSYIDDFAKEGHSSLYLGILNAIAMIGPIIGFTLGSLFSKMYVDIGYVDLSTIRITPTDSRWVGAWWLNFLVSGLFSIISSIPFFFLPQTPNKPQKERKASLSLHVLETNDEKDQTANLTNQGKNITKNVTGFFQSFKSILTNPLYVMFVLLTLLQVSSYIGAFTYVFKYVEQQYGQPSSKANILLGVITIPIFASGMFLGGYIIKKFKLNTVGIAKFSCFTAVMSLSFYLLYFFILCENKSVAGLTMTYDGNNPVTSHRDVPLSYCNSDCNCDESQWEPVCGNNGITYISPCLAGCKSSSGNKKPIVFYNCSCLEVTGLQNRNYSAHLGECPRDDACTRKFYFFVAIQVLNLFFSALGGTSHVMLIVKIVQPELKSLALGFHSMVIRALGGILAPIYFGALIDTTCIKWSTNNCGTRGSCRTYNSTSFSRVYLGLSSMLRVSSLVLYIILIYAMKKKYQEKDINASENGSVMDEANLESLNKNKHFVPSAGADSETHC

[1] = target: T2, Solute carrier organic anion transporter family member 1B1 (Homo sapiens, UniProt Q9Y6L6); test: as §1; settings: hek293
T2 sequence (Q9Y6L6 whole entry): T1 sequence (Q9Y6L6 whole entry)

[2] = substrate: CC[C@H](C)C(=O)O[C@H]1C[C@H](O)C=C2C=C[C@H](C)[C@H](CC[C@@H](O)C[C@@H](O)CC(=O)O)[C@H]21; test: as §1

Km (OATP1B1): 12.4 µM
Molecule: CC(C)c1c(C(=O)Nc2ccccc2)c(-c2ccccc2)c(-c2ccc(F)cc2)n1CC[C@@H](O)C[C@@H](O)CC(=O)O [ATORVASTATIN]

Activity [1]: substrate [(+)]
Molecule: COCc1c(C(C)C)nc(C(C)C)c(/C=C/[C@@H](O)C[C@@H](O)CC(=O)O)c1-c1ccc(F)cc1 [CERIVASTATIN]

B1: Solute carrier organic anion transporter family member 1B1 (Homo sapiens) (protein)
chain: T1 sequence (Q9Y6L6 whole entry)
Km [2]: 85.7 µM
